# Active and inactive are the calls of the source.
# Experiments:
# [1] = HEK293T cytotoxicity, dose response, cytotoxicity control for miR-122 modulator project, cell-based, inhibitor set, cherry-pick, set 2 (AID 720697); format: functional
# [2] = miR-122 activators in hepatoma reporter cells, dose response, cell-based, Huh7 psiCHECK-miR122, Renilla luciferase, cherry-picked (AID 651956); format: functional;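 further: huh7 hepatoma cells stably carrying a psiCHECK-2 miR-122 sensor plasmid; renilla luciferase signal reporting endogenous miR-122 activity after 48 h compound exposure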
# [3] = HEK293T cytotoxicity, dose response, cytotoxicity control for miR-122 modulator project, cell-based, activator set, cherry-pick (AID 720690); format: functional;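 further: HEK293T human cells scored for general mammalian cytotoxicity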
# [4] = Counterscreen for inhibitors of Trypanosoma brucei methionyl tRNA synthetase (MetRS): Luminescence-based cell-based high throughput dose response assay to identify compounds that are cytotoxic to Jurkat human T lymphocyte cells.; format: functional
# [5] = target: T1, Methionyl-tRNA synthetase, putative (Trypanosoma brucei brucei, UniProt Q38C91); format: functional, Trypanosoma brucei brucei strain 927/4 GUTat10.1
# [6] = target: T1, Methionyl-tRNA synthetase, putative; format: functional, Trypanosoma brucei brucei strain 927/4 GUTat10.1; remark: listed apart in the source
# [7] = target: T2, Replicative DNA helicase DnaB (Mycobacterium tuberculosis, UniProt P9WMR3); assay: DnaB intein splicing inhibitors, dose response, biochemical, cell-free fluorescence (AID 449749); format: functional
# T2 sequence (P9WMR3 whole entry): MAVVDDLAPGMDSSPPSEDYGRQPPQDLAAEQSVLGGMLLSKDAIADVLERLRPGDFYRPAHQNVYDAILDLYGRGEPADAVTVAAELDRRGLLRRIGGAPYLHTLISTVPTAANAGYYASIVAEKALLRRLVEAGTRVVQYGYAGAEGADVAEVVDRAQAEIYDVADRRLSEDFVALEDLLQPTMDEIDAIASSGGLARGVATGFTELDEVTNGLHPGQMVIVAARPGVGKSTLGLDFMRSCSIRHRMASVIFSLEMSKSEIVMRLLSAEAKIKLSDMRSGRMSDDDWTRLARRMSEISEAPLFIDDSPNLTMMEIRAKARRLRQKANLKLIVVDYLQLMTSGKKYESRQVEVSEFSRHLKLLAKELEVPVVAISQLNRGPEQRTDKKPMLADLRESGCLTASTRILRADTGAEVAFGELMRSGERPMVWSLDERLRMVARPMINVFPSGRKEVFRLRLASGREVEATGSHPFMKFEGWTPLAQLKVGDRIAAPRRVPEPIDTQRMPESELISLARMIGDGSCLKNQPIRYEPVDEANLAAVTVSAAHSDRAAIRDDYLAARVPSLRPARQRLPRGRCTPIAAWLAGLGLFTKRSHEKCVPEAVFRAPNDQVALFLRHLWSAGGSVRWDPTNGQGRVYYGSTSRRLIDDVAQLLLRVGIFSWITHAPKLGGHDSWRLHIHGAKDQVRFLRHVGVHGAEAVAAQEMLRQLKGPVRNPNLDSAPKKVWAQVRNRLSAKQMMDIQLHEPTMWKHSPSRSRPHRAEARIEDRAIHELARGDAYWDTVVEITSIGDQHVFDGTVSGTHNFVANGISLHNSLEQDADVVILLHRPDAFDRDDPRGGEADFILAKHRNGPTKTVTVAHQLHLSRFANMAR
# [8] = target: T3, Sentrin-specific protease 8 (Homo sapiens, UniProt Q96LD8); format: functional
# T3 sequence (Q96LD8 whole entry): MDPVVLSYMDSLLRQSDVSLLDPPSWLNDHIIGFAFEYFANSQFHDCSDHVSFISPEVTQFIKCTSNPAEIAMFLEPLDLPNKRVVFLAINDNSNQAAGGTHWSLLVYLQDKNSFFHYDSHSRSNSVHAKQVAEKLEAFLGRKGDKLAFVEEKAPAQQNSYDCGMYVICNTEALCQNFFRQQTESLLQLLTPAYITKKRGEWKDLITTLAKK
# Protein RecA = target: T4, Protein RecA (Mycobacterium tuberculosis, UniProt P9WHJ3); assay: Fluorescence Cell-Free Homogeneous Dose Retest to Identify Inhibitors of RecA-Intein Splicing Activity. [Related pubchem assays (depositor defined):AID2097, AID2223, AID489010, AID492950]; format: functional
# T4 sequence (P9WHJ3 whole entry): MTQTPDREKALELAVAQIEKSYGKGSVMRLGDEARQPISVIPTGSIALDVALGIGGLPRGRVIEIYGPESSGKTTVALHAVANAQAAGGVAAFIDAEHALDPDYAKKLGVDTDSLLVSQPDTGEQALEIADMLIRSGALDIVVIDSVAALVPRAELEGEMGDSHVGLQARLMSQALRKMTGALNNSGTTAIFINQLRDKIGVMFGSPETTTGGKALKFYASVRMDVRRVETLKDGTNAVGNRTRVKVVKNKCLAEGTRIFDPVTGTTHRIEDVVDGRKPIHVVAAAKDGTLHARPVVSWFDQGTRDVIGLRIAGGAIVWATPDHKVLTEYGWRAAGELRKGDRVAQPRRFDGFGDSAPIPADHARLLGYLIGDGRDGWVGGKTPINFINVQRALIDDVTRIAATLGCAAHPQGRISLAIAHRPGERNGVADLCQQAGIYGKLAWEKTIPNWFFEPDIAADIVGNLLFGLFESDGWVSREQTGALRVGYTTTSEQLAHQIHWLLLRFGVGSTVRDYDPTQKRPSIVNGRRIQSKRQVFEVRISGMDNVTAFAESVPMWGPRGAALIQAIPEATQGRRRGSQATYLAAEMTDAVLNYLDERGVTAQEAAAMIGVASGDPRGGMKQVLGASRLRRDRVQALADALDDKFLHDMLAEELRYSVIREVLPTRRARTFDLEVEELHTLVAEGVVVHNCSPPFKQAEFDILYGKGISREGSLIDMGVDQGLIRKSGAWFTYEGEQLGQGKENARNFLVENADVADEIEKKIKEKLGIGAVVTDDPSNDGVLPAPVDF
# [9] = target: T3, Sentrin-specific protease 8; format: functional; remark: listed apart in the source
# Mu-type opioid receptor = Mu-type opioid receptor (Homo sapiens, UniProt P35372); format: functional, cell-based;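 further: U2OS cells with beta-arrestin recruitment to OPRM1 by beta-gal complementation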
# [10] = target: 5-hydroxytryptamine receptor 2A (Mus musculus, UniProt P35363); format: functional, cell-based;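 further: CHO-K1 cells with tagged receptor and beta-arrestin; agonist potency measured as compound-induced activation of the receptor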
# HeLa = assay: HeLa cell cytotoxicity, dose response, cytotoxicity control, ATP luminescence, cherry-pick samples (AID 687004); format: functional, cell-based; conditions: Homo sapiens
# cells [11] = format: functional, cell-based
# [12] = target: T5, Trace amine-associated receptor 1 (Homo sapiens, UniProt Q96RJ0); assay: Fluorescence-based cell-based high throughput dose response assay to identify agonists of the human trace amine associated receptor 1 (TAAR1).; format: functional
# cells [13] = format: functional, cell-based; remark: listed apart in the source
# [14] = target: T5, Trace amine-associated receptor 1; assay: Counterscreen for agonists of the human trace amine associated receptor 1 (hTAAR1): Fluorescence-based cell-based high throughput dose response assay to identify hTAAR1 agonist that also desensitize TAAR1 receptor response.; format: functional
# [15] = target: T6, RNA-binding protein pos-1 (Caenorhabditis elegans, UniProt G5EF15); assay: inhibitors of POS-1/mex-3 RNA binding, dose response, biochemical, fluorescence polarization (AID 1964);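 further: purified POS-1 fused to maltose binding protein made in E. coli; potency of compounds blocking POS-1 binding to fluorescent RNA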
# T6 sequence (G5EF15 whole entry): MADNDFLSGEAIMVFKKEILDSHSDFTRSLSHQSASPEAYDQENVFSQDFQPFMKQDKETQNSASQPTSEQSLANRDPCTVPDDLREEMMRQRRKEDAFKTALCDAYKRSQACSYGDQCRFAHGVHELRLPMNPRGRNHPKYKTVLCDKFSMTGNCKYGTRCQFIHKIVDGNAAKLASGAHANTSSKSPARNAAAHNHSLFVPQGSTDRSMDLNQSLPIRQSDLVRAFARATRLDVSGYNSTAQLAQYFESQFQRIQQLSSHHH
# [16] = target: Long-chain-fatty-acid--AMP ligase FadD28 (Mycobacterium tuberculosis, UniProt P9WQ59); assay: Fluorescence polarization aasay to screen for inhibitors that compete for the binding of FadD28 to a bisubstrate Measured in Biochemical System Using Plate Reader - 2147-01_Inhibitor_Dose_CherryPick_Activity.; format: functional, Mycobacterium tuberculosis H37Rv
# [17] = target: T7, Rac GTPase-activating protein 1 (Homo sapiens, UniProt Q9H0H5); assay: MgcRacGAP GTPase-activating activity inhibitors, confirmation, biochemical, ADP Hunter fluorescence, primary and confirmatory (AID 624330); format: functional
# T7 sequence (Q9H0H5 whole entry): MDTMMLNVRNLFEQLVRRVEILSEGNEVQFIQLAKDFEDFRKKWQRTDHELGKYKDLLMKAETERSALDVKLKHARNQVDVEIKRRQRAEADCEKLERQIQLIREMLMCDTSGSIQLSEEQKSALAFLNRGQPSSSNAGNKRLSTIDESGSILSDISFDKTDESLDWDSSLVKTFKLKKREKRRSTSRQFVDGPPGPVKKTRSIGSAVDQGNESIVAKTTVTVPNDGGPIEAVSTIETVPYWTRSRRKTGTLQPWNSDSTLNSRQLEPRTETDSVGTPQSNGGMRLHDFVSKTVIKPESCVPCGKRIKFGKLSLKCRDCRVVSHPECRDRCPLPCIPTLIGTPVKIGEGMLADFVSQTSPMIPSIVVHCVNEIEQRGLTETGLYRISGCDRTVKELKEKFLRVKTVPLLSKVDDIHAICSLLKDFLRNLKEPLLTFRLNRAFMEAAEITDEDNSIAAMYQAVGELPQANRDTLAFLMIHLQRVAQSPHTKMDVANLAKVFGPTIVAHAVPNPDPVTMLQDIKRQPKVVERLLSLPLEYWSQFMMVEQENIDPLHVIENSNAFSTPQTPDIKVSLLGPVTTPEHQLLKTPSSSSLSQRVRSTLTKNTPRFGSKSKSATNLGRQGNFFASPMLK
# [18] = target: T8, Zinc finger protein mex-5 (Caenorhabditis elegans, UniProt Q9XUB2); assay: MEX-5/TCR-2 RNA interaction inhibitors, dose response, biochemical, C. elegans, fluorescence polarization (AID 1960)
# T8 sequence (Q9XUB2 whole entry): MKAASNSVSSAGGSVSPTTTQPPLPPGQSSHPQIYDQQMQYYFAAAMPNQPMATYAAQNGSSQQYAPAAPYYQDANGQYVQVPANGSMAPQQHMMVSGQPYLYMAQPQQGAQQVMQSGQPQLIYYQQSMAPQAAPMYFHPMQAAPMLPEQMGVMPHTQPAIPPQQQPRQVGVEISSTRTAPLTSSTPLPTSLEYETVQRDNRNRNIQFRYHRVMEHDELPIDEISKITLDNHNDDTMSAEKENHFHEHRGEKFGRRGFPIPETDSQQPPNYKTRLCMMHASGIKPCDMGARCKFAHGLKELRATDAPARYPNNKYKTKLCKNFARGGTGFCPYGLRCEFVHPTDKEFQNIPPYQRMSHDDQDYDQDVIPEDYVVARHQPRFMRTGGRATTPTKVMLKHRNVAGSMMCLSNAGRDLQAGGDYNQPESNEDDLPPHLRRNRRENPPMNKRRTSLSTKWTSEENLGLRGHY
# Beta-lactamase [19] = target: Beta-lactamase (Salmonella choleraesuis (strain SC-B67), UniProt Q5J463)
# Beta-lactamase [20] = target: Beta-lactamase (Pseudomonas aeruginosa, UniProt Q79MP6);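 further: biochemical dose-response test of metallo-beta-lactamase enzyme inhibition, read out by epi-absorbance; purified recombinant IMP-1 metallo-beta-lactamase with nitrocefin as substrate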
# Protein Wnt-3a = Protein Wnt-3a (Mus musculus, UniProt P27467); assay: SAR analysis of small molecule antagonists of Gli-SUFU in a Wnt3a luminescent reporter assay.; format: functional
# [21] = target: T9, Botulinum neurotoxin type A (Clostridium botulinum (strain Hall / ATCC 3502 / NCTC 13319 / Type A), UniProt P0DPI1); assay: Confirmatory FRET assay using full length substrates for Botulinum neurotoxin light chain A protease, with Powder Set01.; format: functional
# [22] = target: T9, Botulinum neurotoxin type A; assay: High-throughput multiplex microsphere dose response for inhibitors of toxin protease, specifically Botulinum neurotoxin light chain A protease, compounds from Powder Set 01.; format: functional, Clostridium botulinum A str. ATCC 3502; conditions: read-out: EC50_MICROM
# [23] = target: Botulinum neurotoxin type F (Clostridium botulinum, UniProt P30996); assay: High-throughput multiplex microsphere dose response for inhibitors of toxin protease, specifically Botulinum neurotoxin light chain F protease, compounds from Powder Set 01.; format: functional, Clostridium botulinum Bf; conditions: read-out: EC50_MICROM
# Lethal factor = Lethal factor (Bacillus anthracis, UniProt P15917); assay: High-throughput multiplex microsphere dose response for inhibitors of toxin protease, specifically Lethal Factor protease, compounds from Powder Set 01.; format: functional, Bacillus anthracis str. A2012; conditions: read-out: EC50_MICROM
# Lethal factor, sequence (P15917 whole entry): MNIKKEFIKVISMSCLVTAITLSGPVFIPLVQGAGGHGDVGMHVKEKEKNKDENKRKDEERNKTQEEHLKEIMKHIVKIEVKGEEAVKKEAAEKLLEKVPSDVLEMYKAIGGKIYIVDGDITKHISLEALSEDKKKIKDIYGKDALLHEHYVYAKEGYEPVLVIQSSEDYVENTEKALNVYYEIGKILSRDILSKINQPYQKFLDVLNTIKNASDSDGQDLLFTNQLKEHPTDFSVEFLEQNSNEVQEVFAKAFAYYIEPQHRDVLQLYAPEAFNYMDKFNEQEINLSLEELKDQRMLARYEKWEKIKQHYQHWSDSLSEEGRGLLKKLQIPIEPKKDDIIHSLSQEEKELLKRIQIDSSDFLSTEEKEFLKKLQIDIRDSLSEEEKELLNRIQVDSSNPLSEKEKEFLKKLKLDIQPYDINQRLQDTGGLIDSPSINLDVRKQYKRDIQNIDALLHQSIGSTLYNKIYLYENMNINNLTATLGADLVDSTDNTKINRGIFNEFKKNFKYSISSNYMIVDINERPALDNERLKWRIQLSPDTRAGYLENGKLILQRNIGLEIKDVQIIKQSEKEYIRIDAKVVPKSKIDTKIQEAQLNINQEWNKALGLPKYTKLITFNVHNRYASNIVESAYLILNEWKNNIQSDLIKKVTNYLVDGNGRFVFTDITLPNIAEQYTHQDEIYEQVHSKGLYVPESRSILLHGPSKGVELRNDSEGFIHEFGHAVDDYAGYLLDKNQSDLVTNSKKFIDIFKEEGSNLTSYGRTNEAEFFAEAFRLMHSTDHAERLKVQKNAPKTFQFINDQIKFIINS
# T1 sequence (Q38C91 whole entry): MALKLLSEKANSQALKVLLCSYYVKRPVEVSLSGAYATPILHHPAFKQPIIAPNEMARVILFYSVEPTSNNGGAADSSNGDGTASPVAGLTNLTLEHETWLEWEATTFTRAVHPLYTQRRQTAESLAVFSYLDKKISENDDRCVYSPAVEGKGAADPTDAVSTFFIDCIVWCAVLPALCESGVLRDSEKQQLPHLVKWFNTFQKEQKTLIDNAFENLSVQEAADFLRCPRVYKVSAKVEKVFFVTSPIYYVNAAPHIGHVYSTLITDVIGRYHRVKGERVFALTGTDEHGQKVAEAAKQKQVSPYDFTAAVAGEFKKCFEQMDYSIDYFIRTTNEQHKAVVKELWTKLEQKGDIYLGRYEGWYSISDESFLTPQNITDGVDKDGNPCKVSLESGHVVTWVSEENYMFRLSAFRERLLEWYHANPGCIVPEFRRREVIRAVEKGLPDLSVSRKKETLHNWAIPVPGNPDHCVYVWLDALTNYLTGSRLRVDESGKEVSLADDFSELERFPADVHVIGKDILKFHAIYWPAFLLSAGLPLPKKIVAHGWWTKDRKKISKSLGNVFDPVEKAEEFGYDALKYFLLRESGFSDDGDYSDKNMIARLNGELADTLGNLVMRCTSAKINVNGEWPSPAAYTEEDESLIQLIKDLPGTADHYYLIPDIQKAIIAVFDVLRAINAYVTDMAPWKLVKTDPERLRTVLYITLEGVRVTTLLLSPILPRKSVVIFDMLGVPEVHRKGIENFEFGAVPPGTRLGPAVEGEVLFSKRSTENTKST
# T5 sequence (Q96RJ0 whole entry): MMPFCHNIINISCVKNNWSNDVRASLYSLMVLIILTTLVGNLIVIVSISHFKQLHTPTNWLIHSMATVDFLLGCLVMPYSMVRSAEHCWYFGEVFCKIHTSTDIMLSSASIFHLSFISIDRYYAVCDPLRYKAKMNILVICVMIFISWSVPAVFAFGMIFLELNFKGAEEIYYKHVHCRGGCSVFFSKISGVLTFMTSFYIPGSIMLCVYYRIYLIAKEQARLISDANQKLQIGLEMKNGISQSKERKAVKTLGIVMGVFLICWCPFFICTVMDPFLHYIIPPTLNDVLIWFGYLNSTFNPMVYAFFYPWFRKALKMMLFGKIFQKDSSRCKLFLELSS
# T9 sequence (P0DPI1 2-448 limits assumed): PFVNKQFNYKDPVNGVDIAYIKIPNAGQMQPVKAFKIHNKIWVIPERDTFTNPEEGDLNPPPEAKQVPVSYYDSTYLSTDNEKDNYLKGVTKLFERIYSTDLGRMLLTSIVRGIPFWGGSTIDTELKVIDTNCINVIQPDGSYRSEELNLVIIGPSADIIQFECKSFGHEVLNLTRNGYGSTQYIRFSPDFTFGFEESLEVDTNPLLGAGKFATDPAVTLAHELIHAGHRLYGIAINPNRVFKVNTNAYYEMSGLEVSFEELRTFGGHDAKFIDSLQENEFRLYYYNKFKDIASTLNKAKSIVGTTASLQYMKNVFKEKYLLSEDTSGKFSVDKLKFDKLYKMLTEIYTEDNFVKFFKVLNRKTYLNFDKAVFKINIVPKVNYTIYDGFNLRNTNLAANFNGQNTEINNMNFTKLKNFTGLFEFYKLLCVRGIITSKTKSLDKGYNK
# Long-chain-fatty-acid--AMP ligase FadD28, sequence (P9WQ59 whole entry): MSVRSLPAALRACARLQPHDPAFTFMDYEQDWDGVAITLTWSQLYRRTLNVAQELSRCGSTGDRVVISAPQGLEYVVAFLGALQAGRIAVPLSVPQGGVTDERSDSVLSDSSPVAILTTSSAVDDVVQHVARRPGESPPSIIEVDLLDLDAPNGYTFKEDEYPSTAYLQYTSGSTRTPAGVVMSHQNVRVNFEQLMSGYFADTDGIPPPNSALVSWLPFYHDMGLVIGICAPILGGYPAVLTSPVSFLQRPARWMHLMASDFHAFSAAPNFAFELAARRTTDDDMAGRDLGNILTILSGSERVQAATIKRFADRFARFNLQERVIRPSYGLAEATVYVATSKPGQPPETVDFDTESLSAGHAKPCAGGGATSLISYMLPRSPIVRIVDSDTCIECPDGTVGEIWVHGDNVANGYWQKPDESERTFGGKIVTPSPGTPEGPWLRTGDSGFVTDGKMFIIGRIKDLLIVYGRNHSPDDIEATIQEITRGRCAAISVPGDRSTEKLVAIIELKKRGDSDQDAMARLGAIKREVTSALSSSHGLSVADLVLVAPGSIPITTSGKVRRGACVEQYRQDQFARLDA
# Botulinum neurotoxin type F, sequence (P30996 1-436 limits assumed): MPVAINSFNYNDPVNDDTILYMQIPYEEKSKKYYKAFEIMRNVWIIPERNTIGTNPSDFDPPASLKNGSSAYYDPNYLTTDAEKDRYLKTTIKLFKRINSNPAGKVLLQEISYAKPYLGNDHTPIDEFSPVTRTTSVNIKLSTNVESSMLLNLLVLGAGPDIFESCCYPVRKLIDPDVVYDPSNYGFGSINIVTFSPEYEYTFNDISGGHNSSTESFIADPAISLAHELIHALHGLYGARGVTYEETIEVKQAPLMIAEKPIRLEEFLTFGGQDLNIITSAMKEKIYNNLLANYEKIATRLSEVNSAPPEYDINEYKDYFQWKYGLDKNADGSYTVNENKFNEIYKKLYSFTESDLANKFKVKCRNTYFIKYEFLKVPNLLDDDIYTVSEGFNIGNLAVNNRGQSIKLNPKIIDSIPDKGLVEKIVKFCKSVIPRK
# Mu-type opioid receptor, sequence (P35372 whole entry): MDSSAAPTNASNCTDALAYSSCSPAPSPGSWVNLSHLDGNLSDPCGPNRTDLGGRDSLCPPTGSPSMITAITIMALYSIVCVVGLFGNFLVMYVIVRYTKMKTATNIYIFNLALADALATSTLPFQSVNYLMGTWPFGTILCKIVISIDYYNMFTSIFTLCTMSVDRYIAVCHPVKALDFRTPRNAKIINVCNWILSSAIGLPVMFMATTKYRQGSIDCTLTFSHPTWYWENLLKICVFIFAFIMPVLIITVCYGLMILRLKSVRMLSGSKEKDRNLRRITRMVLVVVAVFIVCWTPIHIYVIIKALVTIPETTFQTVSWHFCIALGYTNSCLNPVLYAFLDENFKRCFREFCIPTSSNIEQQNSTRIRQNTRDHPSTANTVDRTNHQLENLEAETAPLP
# Beta-lactamase (Salmonella choleraesuis (strain SC-B67), UniProt Q5J463), sequence (Q5J463 whole entry): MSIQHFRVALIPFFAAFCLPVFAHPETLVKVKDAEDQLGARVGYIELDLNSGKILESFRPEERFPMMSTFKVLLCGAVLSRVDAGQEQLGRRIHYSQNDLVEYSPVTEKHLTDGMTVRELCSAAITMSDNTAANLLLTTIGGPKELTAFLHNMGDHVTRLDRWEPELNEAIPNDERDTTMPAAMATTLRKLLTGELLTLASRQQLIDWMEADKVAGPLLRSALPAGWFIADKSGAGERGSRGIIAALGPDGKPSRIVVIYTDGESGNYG
# Beta-lactamase (Pseudomonas aeruginosa, UniProt Q79MP6), sequence (Q79MP6 whole entry): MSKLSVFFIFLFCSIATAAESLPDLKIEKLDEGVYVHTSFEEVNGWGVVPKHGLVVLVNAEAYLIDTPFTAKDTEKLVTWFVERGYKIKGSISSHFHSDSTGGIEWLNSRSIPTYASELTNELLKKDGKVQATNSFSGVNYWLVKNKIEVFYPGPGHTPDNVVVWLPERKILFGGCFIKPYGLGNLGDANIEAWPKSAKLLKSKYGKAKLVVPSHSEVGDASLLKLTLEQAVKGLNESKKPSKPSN
# Protein Wnt-3a, sequence (P27467 whole entry): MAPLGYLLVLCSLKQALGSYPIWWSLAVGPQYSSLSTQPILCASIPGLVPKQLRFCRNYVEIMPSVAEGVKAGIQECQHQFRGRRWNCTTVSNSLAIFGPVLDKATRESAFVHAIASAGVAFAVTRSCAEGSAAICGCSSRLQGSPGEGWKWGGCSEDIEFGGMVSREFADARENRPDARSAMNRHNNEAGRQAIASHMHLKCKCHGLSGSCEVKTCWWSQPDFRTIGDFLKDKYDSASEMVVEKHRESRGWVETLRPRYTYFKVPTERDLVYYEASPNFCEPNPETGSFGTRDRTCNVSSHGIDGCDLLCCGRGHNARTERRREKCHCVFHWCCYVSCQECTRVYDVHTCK
smiles,measurement,setting,value
C[C@@H]1CN([C@@H](C)CO)C(=O)Cc2cc(NC(=O)c3ccncc3)ccc2O[C@H]1CN(C)Cc1ccc(-c2ccccc2)cc1,AC50,[1],15.9 µM (active)
same,AC50,[2],4.94 µM (active)
same,AC50,[3],23.6 µM (active)
O=C(Nc1ccccc1)Nc1nnc(CSCc2ccccc2Cl)s1,IC50,[4],27.7 µM (inactive)
same,IC50,[5],6.26 µM (active)
same,IC50,[6],46.7 µM (inactive)
COC(=O)CCCC1=CC2=C(c3ccccc3)C(=O)C(C)(OC(=O)C3CCCC3)C(=O)C2=CN1CCCCO (stereo not drawn),AC50,[7],68.9 µM (active)
same,IC50,[8],6.43 µM (active)
same,EC50,Protein RecA,18.4 µM (active)
same,IC50,[9],2.93 µM (active)
Clc1ccc(CN2CCN(c3ncccn3)CC2)cc1,EC50,Mu-type opioid receptor,92.5 µM (inactive)
same,EC50,[10],0.153 µM (active)
C[C@@H]1CN([C@@H](C)CO)C(=O)c2cc(NS(=O)(=O)c3cn(C)cn3)ccc2O[C@@H](C)CCCCO[C@@H]1CN(C)Cc1ccc(C(F)(F)F)cc1,AC50,HeLa,13 µM (active)
O=C(C(=O)N1CCc2ccccc2C1)c1cn(CC(=O)N2CCCCC2)c2ccccc12,IC50,cells [11],> 29.9 µM (inactive)
same,EC50,[12],0.879 µM (active)
same,EC50,cells [13],> 29.9 µM (inactive)
same,IC50,[14],3.57 µM (active)
O=C(CNS(=O)(=O)c1ccc([N+](=O)[O-])cc1)N/N=C/c1ccc(O)cc1O,EC50,[15],8.98 µM (active)
same,AC50,[16],9.67 µM (active)
same,IC50,[17],128 µM (active)
same,EC50,[18],8.33 µM (active)
COc1ccc(-c2occ(C(=O)O)c2C(=O)O)cc1,IC50,Beta-lactamase [19],> 59.6 µM (inactive)
same,IC50,Beta-lactamase [20],23.5 µM (inactive)
CC(C)Nc1cc(NC(=O)c2ccccc2)ncn1,IC50,Protein Wnt-3a,> 21.8 µM (inactive)
Clc1ccc(-c2cn3nc(-c4ccccc4)c(-c4ccccc4)nc3n2)cc1,EC50,[21],2.4 µM (active)
same,EC50,[22],1 µM (active)
same,EC50,[23],7.4 µM (active)
same,EC50,Lethal factor,1.6 µM (active)

# — ChEMBL document CHEMBL1201862, “PubChem BioAssay data set” (2004)
